Measurements: patent US20240366723A1, “COMBINATION THERAPY FOR THE TREATMENT OF ENTERIC NEUROPATHIES” (TRANSFERT PLUS, LIMITED PARTNERSHIP, priority 2021, published 2024)
Entries after “also recorded” stand apart in the source; their conditions may differ.

Experiments:
[1] = tested on: Homozygous Holstein^Tg/Tg mice; experiment: Survival of Hol^Tg/Tg mice after enema treatment (model of Trisomy 21 [Collagen VI]-associated HSCR); assay type: in vivo, mouse
Description: Mice. Homozygous Holstein^Tg/Tg mice (Hol^Tg/Tg; a model for Trisomy 21 [Collagen VI]-associated HSCR) were treated with either 10 μl enemas of GDNF (1 μg/μl), or 10 μl of GDNF combined with 5 mM of amino-butyrate acid (Butyrate) or other growth factors at 1 μg/μl, or vehicle (1×PBS) as control. Enemas were administered once a day from postnatal day (P) 4 until P8, and mice were monitored daily until P60 or megacolon-associated death. Survival graphs and statistical analyses were generated with GraphPad Prism software. One-way ANOVA followed by post-hoc Tukey multiple comparison test was carried out, and significance level was set at P<0.05. Number of biological replicates (n) of each cohort is indicated where relevant in Figures.
It was tested whether molecules known to have neurotrophic effects could improve the effect of GDNF on survival in a mouse model for Trisomy 21 [Collagen VI]-associated HSCR) (39).
The molecules that were tested in the present study are: Bone morphogenetic protein 4 (BMP4), Nerve growth factor (NGF), Brain-derived neurotrophic factor (BDNF), Mesencephalic Astrocyte Derived Neurotrophic Factor (MANF), Cerebral Dopamine Neurotrophic Factor (CDNF), Epidermal Growth Factor (EGF), Neurturin (NRTN), Fibroblast growth factor 2 (FGF2), butyrate and Retinoic Acid (RA).

[2] = tested on: mouse model for Trisomy 21 [Collagen VI]-associated HSCR; settings: previous study, same mouse model; Soret et al., Gastroenterology 2020, Supplementary FIG. 1G; cited from earlier work
[3] = literature reports, various models; cited from earlier work

Compound	survival of mice, combination with GDNF relative to GDNF alone [2]	Reported neurotrophic activity [3]	also measured
CCCC(=O)O [butyrate]			effect on survival of combination with GDNF relative to GDNF alone ([1]; 10 μl enema of GDNF 1 μg/μl combined with 5 mM butyrate or other growth factor at 1 μg/μl, once a day P4 until P8, monitored until P60): significantly potentiate the effect of recombinant GDNF; also recorded: acts synergistically with GDNF to improve survival; effect on mouse survival, substance alone ([1]; 10 μl enema once a day P4 until P8, butyrate 5 mM, compared with vehicle (1×PBS), monitored until P60): did not have any effect on survival; also recorded: no effect on mouse survival
NCCc1c[nH]c2ccc(O)cc12 [serotonin]	did not improve the survival of mice relative to GDNF alone		
O=C1O[C@H]([C@@H](O)CO)C(O)=C1O [vitamin C]	did not improve the survival of mice relative to GDNF alone		
CDNF: Cerebral Dopamine Neurotrophic Factor		CDNF is essential for enteric neuronal development	
EGF: Epidermal Growth Factor		EGF is chemoattractant and chemokinetic molecule for	
FGF2: Fibroblast growth factor 2		FGF2 enhances the proliferation and differentiation of	
endothelin 3: molecule known to have neurotrophic effects, combined with GDNF in a previous study	did not improve the survival of mice relative to GDNF alone		
